# Values quoted from earlier work, collected in patent publication US20030073115A1 (priority 2002, published 2003).
# Legend:
# [1] = system: CNS galanin receptors; conditions: CNS / brain
# [2] = system: gastrointestinal smooth muscle
# [3] = system: Galanin receptors in the dorsal hippocampus
affinity [3],Molecule,activity at CNS galanin receptors [1],activity in gastrointestinal smooth muscle [2]
,CSCC[C@H](NC(=O)[C@H](CC(C)C)NC(=O)CNC(=O)[C@H](Cc1ccccc1)NC(=O)[C@H](Cc1ccccc1)NC(=O)[C@H](CCC(N)=O)NC(=O)[C@H](CCC(N)=O)NC(=O)[C@@H]1CCCN1C(=O)CNC(=O)[C@H](CC(C)C)NC(=O)[C@H](CC(C)C)NC(=O)[C@H](Cc1ccc(O)cc1)NC(=O)CNC(=O)[C@H](C)NC(=O)[C@H](CO)NC(=O)[C@H](CC(N)=O)NC(=O)[C@H](CC(C)C)NC(=O)[C@@H](NC(=O)[C@H](Cc1c[nH]c2ccccc12)NC(=O)CN)[C@@H](C)O)C(N)=O [M15],antagonist,full agonist
high affinity,Gal (1-15): galanin fragment 1-15,,
